Source: patent publication US20260209260A1, “VECTORIZED NHC IRIDIUM(III) COMPLEXES AND USE THEREOF IN PHOTODYNAMIC THERAPY AND/OR DIAGNOSTIC” (CENTRE NATIONAL DE LA RECHERCHE SCIENTIFIQUE, priority 2022, published 2026)
Several values for one entry are separate records, joined by “and”; a condition that tells them apart may be missing. Equal values may be shown once. Read-outs that look alike come from different tables or passages of the source.

How the values were obtained:
[1] = tested on: non-tumor cells (NIH-3T3 and MC3T3); assay: Cell viability assay (MTT), summary over the non-tumor models; assay type: cell-based, Murine; conditions: for GI50: blue light 458 nm, read-out: GI50 mean over non-tumor models, irradiated; for mean PI value in NIH-3T3 and MC3T3 non-tumoral cells: dark vs blue light 458 nm
Description: (§1) Cells were grown in humidified incubators at 37° C. in 5% CO2. Murine MC3T3 osteoblast and NIH-3T3 fibroblast cells-used as non-tumor cell models-were cultured in a-MEM medium and DMEM medium supplemented with 10% fetal bovine serum (FBS) and 1% Penicillin/Streptomycin (P/S) antibiotics, respectively. Human T24 bladder, MGHU3 bladder, Scaber bladder, A549 lung, MCF7 breast, MiaPaCa2 pancreas cancer cells were cultured in DMEM medium supplemented with 10% FBS and 1% P/S antibiotics. […] Human Hela cervix and HepG2 liver cancer cells were cultured EMEM medium supplemented with 10% FBS and 1% P/S antibiotics.
(§2) MTT reagent (3-(4,5-dimethylthiazol-2-yl)-2,5-diphenyltetrazolium bromide) was used to determine cell death as originally described by Mosmann. Briefly, cells were seeded from 5,000 to 10,000 cells/well in 24-well plates (1 mL) depending on the cell type and allowed to attach overnight. The complexes were prepared in DMSO. The concentration of the complexes was calculated based on the elemental composition of the complexes determined by the elemental analyses. All cell viability experiments were carried out with a fixed concentration of 0.1% (v/v) DMSO. After 72 h of treatment, cells were incubated at 37° C. and 5% CO2 with 25 μL of MTT solution (5 mg/ml; Sigma-Aldrich) in 24-well plates for 3 to 4 h. After solubilization with 500 μL of DMSO, formazan was quantified spectrophotometrically with a microplate reader at 570 nm absorbance (ClarioSTAR, BMG LabTech). […] All the results were calculated from data obtained in at least three independent experiments performed in triplicate.
(§3) Two sets of experiments were conducted in parallel for each complex to be studied:
(§4) 1. The cells were incubated with the different complexes (in the dark) for 72 h.
(§5) 2. The cells were incubated for 8 h with the different complexes (in the dark), then irradiated for 10 min, followed by an incubation in the dark up to 72 h.

[2] = tested on: cancer cells (all tumor cell lines tested); assay: Cell viability assay (MTT), summary over the cancer cell lines tested; assay type: cell-based, Human; conditions: for GI50: blue light 458 nm, read-out: GI50 mean over cancer cells, irradiated; for PI values, mean over cancer cells: dark vs blue light 458 nm; for increase in cell toxicity in cancer cells compared to non-tumor models: irradiated conditions
Description: as §1, §2, §3, §4, §5

[3] = tested on: 22rV1 prostate cancer cells (PSMA-positive); assay: Cell viability assay (MTT), dark and blue light; assay type: cell-based, Human; conditions: for Photosensitizing index (PI): 22Rv1, dark vs blue light
Method in brief: (§6)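 Dark versus photoactivated cytotoxicity is compared by MTT in RPMI-grown cells, with 72 h total compound exposure at 0.1% DMSO. Blue light (458 nm) is given for 10 min after an 8 h incubation; data come from at least three independent triplicate experiments.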

[4] = tested on: PC-3 prostate cancer cells (PSMA-negative); assay: Cell viability assay (MTT), dark and blue light; assay type: cell-based, Human; conditions: for Photosensitizing index (PI): PC3, dark vs blue light
Method in brief: as §6

[5] = tested on: C4-2B prostate cancer cells (PSMA-positive); assay: Cell viability assay (MTT), dark and blue light; assay type: cell-based, Human; conditions: for Photosensitizing index (PI): dark vs blue light; for SI (vs MC3T3) C4-2b Blue / SI (vs NIH-3T3) C4-2b Blue: blue light 458 nm
Method in brief: as §6

MCF7 breast cancer cells = assay: Cell viability assay (MTT), dark and blue light; assay type: cell-based, Human; conditions: for Photosensitizing index (PI): MCF7, dark vs blue light; for GI50: read-out: GI50
Method in brief: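 Absorbance of MTT formazan at 570 nm gives viability after 72 h exposure to the complexes in 0.1% (v/v) DMSO. Irradiated wells got 10 min of 458 nm light after 8 h of dark incubation.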

[6] = tested on: MiaPaCa2 pancreas cancer cells; assay: Cell viability assay (MTT), dark and blue light; assay type: cell-based, Human; conditions: for Photosensitizing index (PI): MiaPaCa2, dark vs blue light; for GI50: read-out: GI50
Method in brief: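 After overnight attachment, cells received the complexes for 72 h; a parallel set was irradiated for 10 min at 8 h and kept dark thereafter. MTT formazan was quantified at 570 nm.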

[7] = 22Rv1, blue light, read-out: GI50
[8] = 8 h in the dark, blue light 458 nm 10 min, then dark up to 72 h, read-out: GI50 22Rv1 Blue
[9] = in the dark, 72 h, read-out: GI50 22Rv1 Dark
[10] = 8 h in the dark, blue light 458 nm 10 min, then dark up to 72 h, read-out: GI50 PC-3 Blue
[11] = PC3, blue light, read-out: GI50
[12] = in the dark, 72 h, read-out: GI50 PC-3 Dark
[13] = C4-2b, blue light, read-out: GI50

Structure (SMILES)	GI50 [1] [nM]	selectivity for cancer cells over non-tumor cells, in words [2]	GI50 [3, 7] [nM]	Photosensitizing index (PI) [3]	GI50 ([3]; 22Rv1, dark, read-out: GI50) [nM]	GI50 [4, 11] [nM]	Photosensitizing index (PI) [4]	GI50 ([4]; PC3, dark, read-out: GI50) [nM]	mean PI value in NIH-3T3 and MC3T3 non-tumoral cells [1] [fold]	PI values, mean over cancer cells [2] [fold]	SI (vs NIH-3T3) (MCF7 breast cancer cells; MCF7, blue light)	SI (vs MC3T3) (MCF7 breast cancer cells; MCF7, dark)	SI (vs NIH-3T3) (MCF7 breast cancer cells; MCF7, dark)	Photosensitizing index (PI) (MCF7 breast cancer cells)	GI50 (MCF7 breast cancer cells; MCF7, dark)	SI (vs NIH-3T3) ([4]; PC3, dark)	Photosensitizing index (PI) [6]	SI (vs MC3T3) ([6]; MiapaCa2, blue light)	SI (vs NIH-3T3) ([6]; MiapaCa2, blue light)	SI (vs NIH-3T3) ([6]; MiapaCa2, dark)	other results
F[P-](F)(F)(F)(F)F.O=C(O)CC[C@H](NC(=O)N[C@@H](CCCCNC(=O)CCn1cc[n+]2[c]1[Ir-3]13([c]4ccccc4-c4c5ccccc5cc[n+]41)([c]1ccccc1-c1c4ccccc4cc[n+]13)[n+]1ccccc1-2)C(=O)O)C(=O)O [III-h]	22800	most selective effects under irradiated conditions	140	29.3	4100	680	31.2	21200	–	–	–	–	–	–	–	–	–	–	–	–	GI50 [3, 8]: 140 nM; SI (vs NIH-3T3) 22Rv1 Blue ([3]; blue light 458 nm): 131.9; SI (vs MC3T3) 22Rv1 Dark ([3]; dark): 12.9; SI (vs NIH-3T3) 22Rv1 Dark ([3]; dark): >25; GI50 [3, 9]: 4100 nM; GI50 [4, 10]: 680 nM; SI (vs MC3T3) PC-3 Blue ([4]; blue light 458 nm): 12.2; SI (vs NIH-3T3) PC-3 Blue ([4]; blue light 458 nm): 28.0; GI50 [4, 12]: 21200 nM; GI50 ([5]; 8 h in the dark, blue light 458 nm 10 min, then dark up to 72 h, read-out: GI50 C4-2b Blue): 310 nM; GI50 [5, 13]: 310 nM; Photosensitizing index (PI) ([5]; C4-2b): 12.9; GI50 ([5]; C4-2b, dark, read-out: GI50): 4000 nM; SI (vs MC3T3) C4-2b Blue [5]: 27.0; SI (vs NIH-3T3) C4-2b Blue [5]: 61.9; SI (vs MC3T3) C4-2b Dark ([5]; dark): 13.0
F[P-](F)(F)(F)(F)F.O=C(O)CC[C@H](NC(=O)N[C@@H](CCCCNC(=O)CCn1cc[n+]2[c]1[Ir-3]13([c]4ccccc4-c4sc5ccccc5[n+]41)([c]1ccccc1-c1sc4ccccc4[n+]13)[n+]1ccccc1-2)C(=O)O)C(=O)O [III-k]	22800	most selective effects under irradiated conditions	390	13.1	5100	2100	4.6	9600	–	–	–	–	–	–	–	–	–	–	–	–	GI50 [3, 8]: 8390 nM; SI (vs MC3T3) 22Rv1 Blue ([3]; blue light 458 nm): 87.1; SI (vs NIH-3T3) 22Rv1 Blue ([3]; blue light 458 nm): 77.3; SI (vs MC3T3) 22Rv1 Dark ([3]; dark): 18.8; GI50 [3, 9]: 5100 nM; GI50 [4, 10]: 2100 nM; SI (vs NIH-3T3) PC-3 Blue ([4]; blue light 458 nm): 14.3; SI (vs MC3T3) PC-3 Dark ([4]; dark): 9.9; GI50 [4, 12]: 9800 nM; GI50 [5, 13]: 410 nM; Photosensitizing index (PI) ([5]; C4-2b): 12.9; GI50 ([5]; C4-2b, dark, read-out: GI50): 5300 nM; SI (vs MC3T3) C4-2b Blue [5]: 83.3; SI (vs NIH-3T3) C4-2b Blue [5]: 73.9; SI (vs MC3T3) C4-2b Dark ([5]; dark): 17.9; GI50 ([5]; in the dark, 72 h, read-out: GI50 C4-2b Dark): 5300 nM
F[P-](F)(F)(F)(F)F.O=C(NCCCn1cc[n+]2[c]1[Ir-3]13([c]4ccccc4-c4c5ccccc5cc[n+]41)([c]1ccccc1-c1c4ccccc4cc[n+]13)[n+]1ccccc1-2)[c-]1cccc1.[Fe+2].c1cc[cH-]c1 [IV-h]	4450	most selective effects under irradiated conditions	–	–	–	58	22.4	1300	2.8	20.1	15.7	2.9	2.2	21.4	6000 nM	10.2	24.6	86.2	63.8	7.8	GI50 [2]: 155 nM; increase in cell toxicity in cancer cells compared to non-tumor models [2]: 29 fold; SI (vs MC3T3) ([4]; PC3, blue light): 77.6; GI50 ([6]; MiapaCa2, dark): 1700 nM
F[P-](F)(F)(F)(F)F.O=C(NCCCn1cc[n+]2[c]1[Ir-3]13([c]4cccc5ccc6ccc[n+]1c6c45)([c]1cccc4ccc5ccc[n+]3c5c14)[n+]1ccccc1-2)[c-]1cccc1.[Fe+2].c1cc[cH-]c1 [IV-i]	–	–	–	–	–	270	21.9	–	2.8	1.6	28.7	1.9	7.8	8.5	5300 nM	7.0	5.1	–	48.1	–	SI (vs MC3T3) ([4]; PC3, dark): 1.7; GI50 ([6]; MiapaCa2, blue light): 370 nM
F[P-](F)(F)(F)(F)F.O=C(NCCCn1cc[n+]2[c]1[Ir-3]13([c]4c(sc5ccccc45)-c4cccc[n+]41)([c]1c(sc4ccccc14)-c1cccc[n+]13)[n+]1ccccc1-2)[c-]1cccc1.[Fe+2].c1cc[cH-]c1 [IV-j]	8400	most selective effects under irradiated conditions	–	–	–	–	121.7	7300	2.8	39.8	–	–	9.5	15.7	6600 nM	–	21.9	24.4	–	17.9	GI50 [2]: 228 nM; increase in cell toxicity in cancer cells compared to non-tumor models [2]: 39 fold; GI50 (MCF7 breast cancer cells; MCF7, blue light): 720 nM and 420 nM; SI (vs MC3T3) ([4]; PC3, dark): 2.2; SI (vs MC3T3) ([6]; MiapaCa2, dark): 4.7
F[P-](F)(F)(F)(F)F.O=C(NCCCn1cc[n+]2[c]1[Ir-3]13([c]4ccccc4-c4sc5ccccc5[n+]41)([c]1ccccc1-c1sc4ccccc4[n+]13)[n+]1ccccc1-2)[c-]1cccc1.[Fe+2].c1cc[cH-]c1 [IV-k]	–	–	–	–	–	–	7.9	1100	2.8	1.8	18.7	1.8	3.2	9.4	6800 nM and 5800 nM	17.3	6.9	15.9	36.3	8.5	SI (vs MC3T3) (MCF7 breast cancer cells; MCF7, blue light): 8.2; GI50 (MCF7 breast cancer cells; MCF7, blue light): 620 nM; SI (vs MC3T3) ([4]; PC3, blue light): 37.0; GI50 ([6]; MiapaCa2, blue light): 320 nM; GI50 ([6]; MiapaCa2, dark): 2200 nM
